Earlier results, collected in patent US20140037700A1, “Composition and Method for Enhancing an Immune Response” (priority 2011, published 2014).

Legend:
[1] = combined with liposomes
TACO gene transcription = details: human macrophages
[2] = test system: M. tuberculosis survival within macrophages
[3] = test system: M. tb cells in NRP2 state; details: oxygen 0.06% of normal saturation (anaerobic)
[4] = test system: tuberculosis growth in human monocytes; set-up: dose or concentration left out as unconfirmed; details: alone, in vitro; Denis et al.
[5] = test system: anti-microbial peptide cathelicidin; details: exposure of macrophages
[6] = in the presence of a normal or high calcium diet; DeLuca et al.

## Monophosphoryl lipid A
[1]
  mucosal immunoprotective responses: induce mucosal immunoprotective responses

## epigallocatechin-3-gallate [EGCG]
TACO gene transcription
  TACO gene transcription: down-regulates TACO gene transcription in a dose-dependent manner
[2]; in vitro, flow cytometry and colony counts
  mycobacterium survival within macrophages: substantially reduced mycobacterium survival
[2]; used prior to M. tb exposure in vitro
  M. tuberculosis survival within macrophages: completely inhibits

## NNC(=O)c1ccncc1 [isoniazid]
[3]
  susceptibility of NRP2 cells to antibiotic: resistant

## C=C1/C(=C\C=C2/CCC[C@]3(C)[C@@H]([C@H](C)CCCC(C)(C)O)CC[C@@H]23)C[C@@H](O)C[C@@H]1O [Calcitriol, 1,25-dihydroxyvitamin D]
M.tb within macrophages; even at extremely low concentrations, Crowle et al.
  bacillary replication in macrophages: slow and stop bacillary replication
M.tb within macrophages; primary human macrophages infected with virulent M. tb
  colony forming units: reduced colony forming units
[4]
  ability of human monocytes to restrict tuberculosis growth: significant ability to restrict tuberculosis growth
[5]
  expression of anti-microbial peptide cathelicidin: induces expression
[6]
  prevention or suppression of autoimmune disease in models: prevent or markedly suppress

## Cc1ncc([N+](=O)[O-])n1CCO [metronidazole]
[3]
  susceptibility of NRP2 cells to antibiotic: sensitive
